In ChEMBL document CHEMBL3272101, “Antiviral activity of some beta-diketones. 4. Benzyl diketones. In vitro activity against both RNA and DNA viruses” (1978):
Values after ≈ are worked out from the molar mass of the structure shown. Active and inactive are the calls of the source. The calls are words filed in the database; no cut-off is given here.

Assays:
Human alphaherpesvirus 2 = test: Antiviral activity against Herpesvirus 2; assay type: functional
Human respirovirus 3 = test: Antiviral activity against Parainfluenza virus 3; assay type: functional
Human alphaherpesvirus 1 [1] = test: (§1) Antiviral activity against Herper simplex virus 1 Sheely infected in Blue Spruce mouse assessed as host survival time administered as 5% suspension in 1% gum tragacanth intravaginally, bid using cotton tampons treatment started 4 hrs post-infection for every 24 hrs and second treatment followed 6 hrs later for 7 days (reference value: >10.7 days); assay type: functional
Influenza A virus [2] = test: Antiviral activity against Influenza A2 Japan 170 virus infected in ferret trachea assessed as reduction in virus yield at 25 ug/ml; assay type: functional; details: A2 Japan 170, Trachea, in Mustela putorius
Human alphaherpesvirus 1 [3] = test: as §1, with “10%” for “5%”; assay type: functional
[4] = Antiviral activity against Human rhinovirus 17; assay type: functional, Human rhinovirus B17; details: Rhinovirus B
Equine herpesvirus sp. [5] = test: Antiviral activity Equine rhinovirus infected in monkey trachea assessed as log reduction in virus yield at 50 ug/ml; assay type: functional
Human alphaherpesvirus 1 [6] = test: Antiviral activity against Herpes simplex virus 1; assay type: functional
Equine herpesvirus sp. [7] = test: Antiviral activity Equine rhinovirus infected in monkey trachea assessed as log reduction in virus yield at 25 ug/ml; assay type: functional
[8] = system: Respiratory syncytial virus; test: Antiviral activity against Respiratory syncytial virus; assay type: functional; details: human respiratory syncytial virus
Influenza A virus [9] = test: Antiviral activity against Influenza A2 Japan 170 virus infected in ferret trachea assessed as reduction in virus yield at 50 ug/ml; assay type: functional; details: A2 Japan 170, Trachea, in Mustela putorius
Human alphaherpesvirus 1 [10] = test: as §1, with “rate” for “time”, “days measured 14 days post-infection” for “days”, “40%)” for “>10.7 days)”; assay type: functional
rhinovirus A2 = test: Antiviral activity against Human rhinovirus 2; assay type: functional; details: Rhinovirus A
Human alphaherpesvirus 1 [11] = test: as §1, with “rate” for “time”, “10%” for “5%”, “days measured 14 days post-infection” for “days”, “40%)” for “>10.7 days)”; assay type: functional
Equine herpesvirus sp. [12] = test: Antiviral activity Equine rhinovirus; assay type: functional

In the case of CCC(=O)C(Cc1ccc(O)cc1)C(=O)CC, the MIC (Human alphaherpesvirus 2) is reported as “inactive”.
In the case of CCC(=O)C(Cc1ccc(/C=C/c2ccc(OC)cc2)cc1)C(=O)CC, the MIC (Human respirovirus 3) is reported as 3 µg/mL (≈ 8.56 µM), the Time (Human alphaherpesvirus 1 [1]) is reported as greater than 11.3 days and the inhibition at 25 µg/mL (Influenza A virus [2]) is reported as 0%. For the same compound, the Time (Human alphaherpesvirus 1 [3]) was greater than 11.4 days, the MIC [4] was 0.3 µg/mL (≈ 0.856 µM) and the MIC (Human alphaherpesvirus 2) was 1.25 µg/mL (≈ 3.57 µM). The LCK (Equine herpesvirus sp. [5]) was 2, the MIC (Human alphaherpesvirus 1 [6]) was 0.7 µg/mL (≈ 2 µM) and the LCK (Equine herpesvirus sp. [7]) was 1.7. It also gave an MIC [8] of 1.5 µg/mL (≈ 4.28 µM), an inhibition at 50 µg/mL (Influenza A virus [9]) of 0% and a Survival (Human alphaherpesvirus 1 [10]) of 50%. For the same compound, the MIC (rhinovirus A2) was 0.2 µg/mL (≈ 0.571 µM), the Survival (Human alphaherpesvirus 1 [11]) was 60% and the MIC (Equine herpesvirus sp. [12]) was 0.06 µg/mL (≈ 0.171 µM).
In the case of CCC(=O)C(Cc1ccc(/C=C/c2ccc(O)cc2)cc1)C(=O)CC, the MIC (Human alphaherpesvirus 2) is reported as 1.5 µg/mL (≈ 4.46 µM).
For CCC(=O)C(Cc1ccc(OC)cc1Cl)C(=O)CC, the MIC (Human alphaherpesvirus 2) was 50 µg/mL (≈ 177 µM).
For CCC(=O)C(Cc1ccc(CCc2ccc(OC)cc2)cc1)C(=O)CC, the MIC (Human alphaherpesvirus 2) was 3 µg/mL (≈ 8.51 µM).
With CCC(=O)C(Cc1ccc(/C=C/c2ccc(Cl)cc2)cc1)C(=O)CC the MIC (Human alphaherpesvirus 2) was “inactive”.
For CCC(=O)C(Cc1ccc(OC)cc1)C(=O)CC, the MIC (Human alphaherpesvirus 2) was “inactive”.
For CCC(=O)C(Cc1ccc(/C=C/c2ccc(OC)cc2Cl)cc1Cl)C(=O)CC, the MIC (Human alphaherpesvirus 2) was “inactive”.
In the case of CCC(=O)C(Cc1ccc(/C=C/c2ccccc2)cc1)C(=O)CC, the MIC (Human alphaherpesvirus 2) is reported as “inactive”.
For CCC(=O)C(Cc1ccc(C)cc1)C(=O)CC, the MIC (Human alphaherpesvirus 2) was “inactive”.
CCC(=O)C(Cc1ccc(Oc2ccc(OC)cc2)cc1)C(=O)CC showed an MIC (Human alphaherpesvirus 2) of 3 µg/mL (≈ 8.81 µM).
In the case of CCC(=O)C(C[C@H]1CC[C@@H](COc2ccc(OC)cc2Cl)CC1)C(=O)CC, the MIC (Human alphaherpesvirus 2) is reported as 6 µg/mL (≈ 15.2 µM).
CCC(=O)C(Cc1ccc(Cc2ccccc2)cc1)C(=O)CC gave an MIC (Human alphaherpesvirus 2) of 6 µg/mL (≈ 19.5 µM).
CCC(=O)C(Cc1ccc(Cc2ccc(OC)cc2)cc1)C(=O)CC gave an MIC (Human alphaherpesvirus 2) of 6 µg/mL (≈ 17.7 µM).
With CCC(=O)C(Cc1ccc(Cc2ccc(O)cc2)cc1)C(=O)CC the MIC (Human alphaherpesvirus 2) was 3 µg/mL (≈ 9.25 µM).
CCC(=O)C(Cc1ccc(/C=C/c2ccc(OC)cc2Cl)cc1)C(=O)CC showed an MIC (Human alphaherpesvirus 2) of 1.5 µg/mL (≈ 3.9 µM).
With CCC(=O)C(Cc1ccc(/C=C/c2ccc(O)cc2Cl)cc1)C(=O)CC the MIC (Human alphaherpesvirus 2) was 1.5 µg/mL (≈ 4.04 µM).
CCC(=O)C(CC1CCC(Cc2ccc(OC)cc2)CC1)C(=O)CC (configuration not stated) gave an MIC (Human alphaherpesvirus 2) of 6 µg/mL (≈ 17.4 µM).
